Measured values published in article PMC8305101, “Synthesis and Cytotoxicity Evaluation of Spirocyclic Bromotyrosine Clavatadine C Analogs” (Marine Drugs, 2021).
Where “and” joins values, the source holds several entries; their conditions need not be identical. Equal values may be shown once. Where a name gives a salt, the structure may show the parent alone. Read-outs that look alike come from different tables or passages of the source.

Experiments:
[1] = tested on: human malignant melanoma A-375 cell line; test: Cytotoxicity in A-375 melanoma cells (CellTiter-Glo ATP viability); assay type: cell-based; conditions: for cytotoxicity at 50 µM / CC50: Homo sapiens; for CC50: read-out: CC50 (µM) in A-375 Cells; for Selectivity Index (SI): ratio of CC50 values between Hs27 fibroblasts and A-375 melanoma cells, SD in parentheses
Experimental: (§1) Analysis of selectivity to cancer cells. The cells were seeded to white frame and clear bottom 96-well plates (Perkin Elmer) at a density of 10,000 cells/well for the human malignant melanoma A-375 cell line (ATCC CRL-1619) and 7500 cells/well for the human skin fibroblast Hs27 cell line (ATCC CRL-1634). The cells were grown at 37 °C, 5% CO2 until they reached 70–80% confluence (approximately 24 h). Stock solutions of test compounds and a positive control (camptothecin, Sigma-Aldrich, St. Louis, MO, USA) were prepared in DMSO and diluted into the assay medium (growth medium with 5% FBS) to the final concentration. Final DMSO concentration was 0.5% in all samples. The culture medium was removed from the plate and compounds added, 200 µL/well. After a 48-h incubation, the amount of ATP, which is directly proportional to the number of viable cells present in culture, was quantified using CellTiter-Glo® Luminescent Cell Viability kit (Promega, Madison, WI, USA), according to manufacturer’s instructions. Origin Graphing and Analysis, version 9.55 (OriginLab, Northampton, MA, USA), was used for determination of CC50 values. The cancer cell selectivity index was calculated as a ratio of CC50 values between Hs27 fibroblasts and A-375 melanoma cells. Standard deviation of selectivity indices was calculated using Equation (1) (1) σ(x¯/y¯)=(σ(x)/x¯)^2+(σ(y)/y¯)^2

[2] = tested on: MCF7 (breast) cancer cell line; set-up: method as in doi:10.1016/j.tetlet.2016.10.019; conditions: cited from earlier work
[3] = tested on: MDA-MB-231 (breast) cancer cell line; set-up: method as in doi:10.1016/j.tetlet.2016.10.019; conditions: cited from earlier work
[4] = tested on: A549 (lung) cancer cell line; set-up: method as in doi:10.1016/j.tetlet.2016.10.019; conditions: cited from earlier work
[5] = tested on: SKMel-147 melanoma cell line; set-up: method as in PMID 32228987; conditions: SKMel-147 melanoma cells; cited from earlier work
[6] = tested on: Mel-Juso melanoma cell line; set-up: method as in PMID 32228987; conditions: Mel-Juso melanoma cells; cited from earlier work
[7] = tested on: Malme-3M melanoma cell line; set-up: method as in PMID 32228987; conditions: Malme-3M melanoma cells; cited from earlier work
[8] = tested on: breast cancer cell line MCF-7; set-up: method as in PMID 32228987; conditions: MCF-7 breast cancer cells; cited from earlier work
[9] = Cytotoxicity in Hs27 normal skin fibroblasts (CellTiter-Glo ATP viability); assay type: cell-based; conditions: human, 48-h incubation, mean (SD) of 2–3 independent experiments in triplicate
Experimental: as §1

[10] = tested on: caspases 3/7 in A-375 cells; test: Apoptosis induction assay, caspase-3/7 activity (ApoTox-Glo) in A-375 cells; assay type: cell-based, human; conditions: 1 × CC50 concentration
Experimental: Apoptosis induction assay and imaging. A-375 cells were seeded to white 96-well plates and treated with compounds at 1 × CC50 concentration, 100 µL/well, following the procedure described above. After 24 and 48 h, caspase-3/7 activity was measured using the ApoTox-Glo kit (Promega) following the manufacturer’s instructions. The light microscopy images were taken using 4× phase contrast objective and Cytation5 automated imaging reader (Biotek).

[11] = A-375, 48 h, read-out: Primary Test Results (Cytotoxicity % at 50 µM in A-375 Cells), 50 µM, A-375 cells, 48-h incubation, single experiment with three technical replicates
[12] = read-out: CC50 (µM) in Hs27 Cells

Row | Structure (SMILES) | Selectivity Index (SI) [1] | CC50 ([1]; A-375, 48 h) [µM] | cytotoxicity at 50 µM [1, 11] [%] | CC50 at 48 h [9, 12] [µM] | further results
1 | N=C(N)NCCCCNC(=O)C1=NOC2(C=C(Br)C(=O)C(Br)=C2)C1 [Compound 1-TFA, 7,9-Dibromo-N-(4-guanidinobutyl)-8-oxo-1-oxa-2-azaspiro[4.5]deca-2,6,9-triene-3-carboxamide] | – | – | – | – | Primary Test Results (Cytotoxicity % at 50 µM in A-375 Cells) ([1]; 50 µM, A-375 cells, 48-h incubation, single experiment with three technical replicates): less than 25% and 0.5%; Activity against MCF7 cancer cell line [2]: moderate activity; Activity against MDA-MB-231 cancer cell line [3]: moderate activity; Activity against A549 cancer cell line [4]: moderate activity
2 | COC1=C(Br)[C@H](O)[C@@]2(C=C1Br)CC(C(=O)NCC(O)COc1c(Br)cc(C(O)CNC(=O)C3=NO[C@]4(C=C(Br)C(OC)=C(Br)[C@@H]4O)C3)cc1Br)=NO2 (stereo partly shown) [isofistularin-3] | – | – | – | – | Effect on cell viability [5]: no significant decrease; Effect on cell viability [6]: no significant decrease; Effect on cell viability [7]: no significant decrease; Effect on cell viability [8]: reduced cell viability
3 | CC[C@@]1(O)C(=O)OCc2c1cc1n(c2=O)Cc2cc3ccccc3nc2-1 [Camptothecin, reference compound] | 70.9 (0.5) | – | – | – | cytotoxicity at 50 µM ([1]; 50 µM, A-375 cells, 48-h incubation, single experiment with three technical replicates, read-out: Primary Test Results (Cytotoxicity % at 50 µM in A-375 Cells)): 94.7%; CC50 ([1]; A-375 cells, 48-h incubation, mean (SD) of 2–3 independent experiments in triplicate): 0.05 µM; CC50 at 48 h ([9]; Hs27 skin fibroblast cells): 3.6 µM; Caspase 3/7 induction, fold change relative to DMSO-treated control ([10]; 24 h): ~20 fold; Caspase 3/7 induction, fold change relative to DMSO-treated control ([10]; 48 h): nearly fivefold
4 | O=C(Nc1ccc(C(F)(F)F)cn1)C1=NOC2(C=C(Br)C(=O)C(Br)=C2)C1 [Compound 30, 7,9-Dibromo-8-oxo-N-[5-(trifluoromethyl)pyridin-2-yl]-1-oxa-2-azaspiro[4.5]-deca-2,6,9-triene-3-carboxamide] | 0.6 (0.2) | 3.6 | 98.1 | 2.3 | –
5 | Cn1nc(-c2ccc(Cl)cc2)cc1NC(=O)C1=NOC2(C=C(Br)C(=O)C(Br)=C2)C1 [Compound 41, 7,9-Dibromo-N-[3-(4-chlorophenyl)-1-methyl-1H-pyrazol-5-yl]-8-oxo-1-oxa-2-azaspiro[4.5]deca-2,6,9-triene-3-carboxamide] | 1.1 (0.8) | 1.3 | 97.6 | 1.4 | –
6 | COc1ccc(CNC(=O)C2=NOC3(C=C(Br)C(=O)C(Br)=C3)C2)cc1 [Compound 24, 7,9-Dibromo-N-(4-methoxybenzyl)-8-oxo-1-oxa-2-azaspiro[4.5]deca-2,6,9-triene-3-carboxamide] | 0.9 (0.3) | 3.5 | 97.8 | 3.3 | –
7 | COc1ccc(CNC(=O)C2=NOC3(C=CC(=O)C=C3)C2)cc1 [Compound 23, N-(4-Methoxybenzyl)-8-oxo-1-oxa-2-azaspiro[4.5]deca-2,6,9-triene-3-carboxamide] | 1.2 (0.6) | 1.2 | 100 | 1.4 | –
8 | O=C1C=CC2(C=C1)CC(C(=O)NCCc1c[nH]c3ccccc13)=NO2 [Compound 22, N-[2-(1H-Indol-3-yl)ethyl]-8-oxo-1-oxa-2-azaspiro[4.5]deca-2,6,9-triene-3-carboxamide] | 1.0 (0.3) | 0.7 | 99.8 | 0.7 | –
9 | O=C1C=CC2(C=C1)CC(C(=O)NCc1cccnc1)=NO2 [Compound 35, 8-Oxo-N-(pyridin-3-ylmethyl)-1-oxa-2-azaspiro[4.5]deca-2,6,9-triene-3-carboxamide] | 2.3 (0.1) | 1.1 | 97.5 | 2.5 | –
10 | O=C(Nc1cc(Cl)cc(Cl)c1)C1=NOC2(C=C(Br)C(=O)C(Br)=C2)C1 [Compound 19, 7,9-Dibromo-N-(3,5-dichlorophenyl)-8-oxo-1-oxa-2-azaspiro[4.5]deca-2,6,9-triene-3-carboxamide] | 0.7 (0.5) | 9.2 | 94.9 | 6.8 | –
11 | CN(C)C(=O)C1=NOC2(C=CC(=O)C=C2)C1 [Compound 12, N,N-Dimethyl-8-oxo-1-oxa-2-azaspiro[4.5]deca-2,6,9-triene-3-carboxamide] | 1.8 (0.6) | 2.1 | 95.1 | 3.8 | –
